# Data as given in US9315490B2, “2,5-substituted pyrimidines” (Grünenthal GmbH, priority 2014, dated 2016).
# Biological target: T1, human PDE4B1 (Homo sapiens, UniProt Q07343)
# T1 construct: host or cells: Sf9 cells
# Assay: cAMP HTRF assay to determine the activity of hPDE4B1
# Assay type: biochemical
# Conditions: inhibition of PDE4B at a test concentration of 1 μM; for Inhibition in %: 1 µM
# Method: Biological Testing cAMP HTRF® Assay to Determine the Activity of hPDE4B1
# The inhibiting effect of the compounds on the enzyme activity of human PDE4B1 was measured by the quantification of 5′-adenosine monophosphate (5′-AMP), which is formed from 3′,5′-cyclic adenosine monophosphate (cAMP). Human recombinant enzyme, expressed in Sf9 cells, and the HTRF (homogeneous time-resolved fluorescence) detection method were used in the assay.
# The test compound or water (control) was mixed with the human recombinant PDE4B1 enzyme (4.8 U) in a buffer consisting of 44.4 mM tris-HCl, 5.28 mM MgCl2, 2.64 mM DTT and 0.044% Tween 20 (pH 7.8). After adding the cAMP enzyme substrate (final concentration 40 nM), the mixture was incubated for 30 minutes at room temperature. Then a fluorescence acceptor (Dye2 marked with cAMP), a fluorescence donor (anti-cAMP antibody marked with a europium cryptate) and the non-specific phosphodiesterase inhibitor IBMX (3-isobutyl-1-methylxanthine; final concentration 1 mM) were added. After 60 minutes the fluorescence transfer, which correlates with the amount of remaining cAMP, was measured with a microplate reader (Rubystar, BMG) at λex=337 nm, λem=620 nm and λem=665 nm. The enzyme activity was calculated from the quotient formed from the measured signal at 665 nm and that at 620 nm. The result was expressed as the percentage inhibition of enzyme activity of the control (without PDE4 inhibitor). The enzyme was omitted for measurement of the basal control. IC50 values (IC50=concentration causing a half-maximal inhibition of control specific activity) were derived from dose response measurements with eight different concentrations (n=2; N=1-3).
# Literature: N. Saldou et al., Comparison of recombinant human PDE4 isoforms: interaction with substrate and inhibitors, Cell. Signal. Vol. 10, No. 6, 427-440, 1998
# T1 sequence (Q07343 whole entry): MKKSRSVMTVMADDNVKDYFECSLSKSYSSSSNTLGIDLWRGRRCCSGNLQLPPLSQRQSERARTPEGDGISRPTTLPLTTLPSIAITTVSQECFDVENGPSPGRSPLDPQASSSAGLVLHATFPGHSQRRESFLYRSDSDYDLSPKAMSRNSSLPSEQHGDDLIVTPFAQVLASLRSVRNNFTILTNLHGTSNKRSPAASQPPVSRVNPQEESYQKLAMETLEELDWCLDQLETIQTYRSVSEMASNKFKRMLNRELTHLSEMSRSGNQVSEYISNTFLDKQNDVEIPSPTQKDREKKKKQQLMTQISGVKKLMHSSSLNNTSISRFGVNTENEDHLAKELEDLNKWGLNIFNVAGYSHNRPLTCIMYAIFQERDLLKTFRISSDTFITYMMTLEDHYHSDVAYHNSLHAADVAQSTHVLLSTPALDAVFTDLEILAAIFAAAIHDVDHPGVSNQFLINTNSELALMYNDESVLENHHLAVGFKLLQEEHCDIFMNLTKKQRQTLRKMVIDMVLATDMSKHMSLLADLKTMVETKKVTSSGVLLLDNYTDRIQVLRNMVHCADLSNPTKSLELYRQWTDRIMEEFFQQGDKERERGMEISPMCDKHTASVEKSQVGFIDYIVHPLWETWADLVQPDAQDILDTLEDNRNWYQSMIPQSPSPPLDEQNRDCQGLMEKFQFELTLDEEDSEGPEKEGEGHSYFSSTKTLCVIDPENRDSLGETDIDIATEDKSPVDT
inhibition at 1 µM [%],Inhibition in % [%],SMILES
31,–,"C[S+]([O-])c1cn(-c2ncc(-c3ccccc3F)cn2)c2cc(C(=O)N3CCN(CCC#N)CC3)ccc12 (stereo not drawn) [Example 391, 3-(4-(1-(5-(2-Fluorophenyl)pyrimidin-2-yl)-3-(methylsulfinyl)-1H-indole-6-carbonyl)piperazin-1-yl)propanenitrile]"
121,–,"Cc1ccc(F)c(-c2cnc(-n3cc(S(C)(=O)=O)c4ccc(C(=O)N5CC[C@@H](N)C5)cc43)nc2)c1 [Example 231, (R)-(3-Aminopyrrolidin-1-yl)(1-(5-(2-fluoro-5-methylphenyl)pyrimidin-2-yl)-3-(methylsulfonyl)-1H-indol-6-yl)methanone]"
97,–,"C[S+]([O-])c1cn(-c2ncc(-c3ccccc3F)cn2)c2cc(C(=O)N3CC[C@@H](O)C3)ccc12 (stereo partly drawn) [Example 66, (1-(5-(2-Fluorophenyl)pyrimidin-2-yl)-3-(methylsulfinyl)-1H-indol-6-yl)((R)-3-hydroxypyrrolidin-1-yl)methanone]"
103,–,"C[S+]([O-])c1cn(-c2ncc(-c3ccccc3F)cn2)c2cc(C(=O)N3CCC[C@H]3CO)ccc12 (stereo partly drawn) [Example 79, (1-(5-(2-Fluorophenyl)pyrimidin-2-yl)-3-(methylsulfinyl)-1H-indol-6-yl)((S)-2-(hydroxymethyl)pyrrolidin-1-yl)methanone]"
31,–,"CN1CCCN(C(=O)c2ccc3c([S+](C)[O-])cn(-c4ncc(-c5ccccc5F)cn4)c3c2)CC1 (stereo not drawn) [Example 376, (1-(5-(2-Fluorophenyl)pyrimidin-2-yl)-3-(methylsulfinyl)-1H-indol-6-yl)(4-methyl-1,4-diazepan-1-yl)methanone]"
91,–,"C[S+]([O-])c1cn(-c2ncc(-c3ccccc3)cn2)c2cc(C(=O)N3C[C@H]4C[C@@H]3CO4)ccc12 (stereo partly drawn) [Example 234, (1R,4R)-2-Oxa-5-azabicyclo[2.2.1]heptan-5-yl(3-(methylsulfinyl)-1-(5-phenylpyrimidin-2-yl)-1H-indol-6-yl)methanone]"
72,–,"C[S+]([O-])c1cn(-c2ncc(-c3cccnc3)cn2)c2cc(C(=O)N3CCOCC3)ccc12 (stereo not drawn) [Example 49, (3-(Methylsulfinyl)-1-(5-(pyridin-3-yl)pyrimidin-2-yl)-1H-indol-6-yl)(morpholino)methanone]"
–,109,"COc1ccc(F)c(-c2cnc(-n3cc([S+](C)[O-])c4ccc(C(=O)N5CCOCC5)cc43)nc2)c1 (single isomer, unassigned) [Example 161, (1-(5-(2-Fluoro-5-methoxyphenyl)pyrimidin-2-yl)-3-(methylsulfinyl)-1H-indol-6-yl)(morpholino)methanone]"
99,–,"Cc1cccc(-c2cnc(-n3cc([S+](C)[O-])c4ccc(C(=O)N5CCOCC5)cc43)nc2)n1 (stereo not drawn) [Example 180, (1-(5-(6-Methylpyridin-2-yl)pyrimidin-2-yl)-3-(methylsulfinyl)-1H-indol-6-yl)(morpholino)methanone]"
73,–,"C[S+]([O-])c1cn(-c2ncc(-c3ccccc3F)cn2)c2cc(C(=O)N3CCCCCC3)ccc12 (stereo not drawn) [Example 364, Azepan-1-yl(1-(5-(2-fluorophenyl)pyrimidin-2-yl)-3-(methylsulfinyl)-1H-indol-6-yl)methanone]"
109,–,"COc1cccc(-c2cnc(-n3cc([S+](C)[O-])c4ccc(C(=O)N5CCNC(=O)C5)cc43)nc2)c1 (single isomer, unassigned) [Example 217, 4-(1-(5-(3-Methoxyphenyl)pyrimidin-2-yl)-3-(methylsulfinyl)-1H-indole-6-carbonyl)piperazin-2-one]"
40,–,"CN(C)CCN(C)C(=O)c1ccc2c([S+](C)[O-])cn(-c3ncc(-c4ccccc4F)cn3)c2c1 (stereo not drawn) [Example 367, N-(2-(Dimethylamino)ethyl)-1-(5-(2-fluorophenyl)pyrimidin-2-yl)-N-methyl-3-(methylsulfinyl)-1H-indole-6-carboxamide]"
67,–,"CN(CCO)C(=O)c1ccc2c([S+](C)[O-])cn(-c3ncc(-c4ccccc4F)cn3)c2c1 (stereo not drawn) [Example 64, 1-(5-(2-Fluorophenyl)pyrimidin-2-yl)-N-(2-hydroxyethyl)-N-methyl-3-(methylsulfinyl)-1H-indole-6-carboxamide]"
0,–,"COCCN1CCN(C(=O)c2ccc3c([S+](C)[O-])cn(-c4ncc(-c5ccccc5F)cn4)c3c2)CC1 (stereo not drawn) [Example 392, (1-(5-(2-Fluorophenyl)pyrimidin-2-yl)-3-(methylsulfinyl)-1H-indol-6-yl)(4-(2-methoxyethyl)piperazin-1-yl)methanone]"
–,92,"COc1ccc(F)c(-c2cnc(-n3cc([S+](C)[O-])c4ccc(C(=O)N5CCNC(=O)C5)cc43)nc2)c1 (single isomer, unassigned) [Example 214, 4-(1-(5-(2-Fluoro-5-methoxyphenyl)pyrimidin-2-yl)-3-(methylsulfinyl)-1H-indole-6-carbonyl)piperazin-2-one]"
67,–,"C[S+]([O-])c1cn(-c2ncc(-c3cccc(C(N)=O)c3)cn2)c2cc(C(=O)N3CCOCC3)ccc12 (stereo not drawn) [Example 35, 3-(2-(3-(Methylsulfinyl)-6-(morpholine-4-carbonyl)-1H-indol-1-yl)pyrimidin-5-yl)benzamide]"
52,–,"C[S+]([O-])c1cn(-c2ncc(-c3ccccc3F)cn2)c2cc(C(=O)N3CCN(CCO)CC3)ccc12 (stereo not drawn) [Example 389, (1-(5-(2-Fluorophenyl)pyrimidin-2-yl)-3-(methylsulfinyl)-1H-indol-6-yl)(4-(2-hydroxyethyl)piperazin-1-yl)methanone]"
41,–,"CC1CCN(C(=O)c2ccc3c([S+](C)[O-])cn(-c4ncc(-c5ccccc5F)cn4)c3c2)CC1 (stereo not drawn) [Example 363, (1-(5-(2-Fluorophenyl)pyrimidin-2-yl)-3-(methylsulfinyl)-1H-indol-6-yl)(4-methylpiperidin-1-yl)methanone]"
46,–,"CN(C(=O)c1ccc2c([S+](C)[O-])cn(-c3ncc(-c4ccccc4F)cn3)c2c1)C1CCOC1 (stereo not drawn) [Example 54, 1-(5-(2-Fluorophenyl)pyrimidin-2-yl)-N-methyl-3-(methylsulfinyl)-N-(tetrahydrofuran-3-yl)-1H-indole-6-carboxamide]"
–,36,"CC1CC(C)CN(C(=O)c2ccc3c([S+](C)[O-])cn(-c4ncc(-c5ccccc5F)cn4)c3c2)C1 (single isomer, unassigned) [Example 373, (3,5-Dimethylpiperidin-1-yl)(1-(5-(2-fluorophenyl)pyrimidin-2-yl)-3-(methylsulfinyl)-1H-indol-6-yl)methanone]"
66,–,"CCN1CCN(C(=O)c2ccc3c([S+](C)[O-])cn(-c4ncc(-c5ccccc5F)cn4)c3c2)CC1 (stereo not drawn) [Example 375, (4-Ethylpiperazin-1-yl)(1-(5-(2-fluorophenyl)pyrimidin-2-yl)-3-(methylsulfinyl)-1H-indol-6-yl)methanone]"
40,–,"C[S+]([O-])c1cn(-c2ncc(-c3ccccc3F)cn2)c2cc(C(=O)N3CCCNCC3)ccc12 (stereo not drawn) [Example 55, (1,4-Diazepan-1-yl)(1-(5-(2-fluorophenyl)pyrimidin-2-yl)-3-(methylsulfinyl)-1H-indol-6-yl)methanone]"
79,–,"C[S+]([O-])c1cn(-c2ncc(-c3ccccc3F)cn2)c2cc(C(=O)N3CCCOCC3)ccc12 (stereo not drawn) [Example 60, (1-(5-(2-Fluorophenyl)pyrimidin-2-yl)-3-(methylsulfinyl)-1H-indol-6-yl)(1,4-oxoazepan-4-yl)methanone]"
–,31,"CC1CN(C(=O)c2ccc3c([S+](C)[O-])cn(-c4ncc(-c5ccccc5F)cn4)c3c2)CC(C)O1 (single isomer, unassigned) [Example 378, (2,6-Dimethylmorpholino)(1-(5-(2-fluorophenyl)pyrimidin-2-yl)-3-(methylsulfinyl)-1H-indol-6-yl)methanone]"
6,–,"CC(C)N1CCN(C(=O)c2ccc3c([S+](C)[O-])cn(-c4ncc(-c5ccccc5F)cn4)c3c2)CC1 (stereo not drawn) [Example 386, (1-(5-(2-Fluorophenyl)pyrimidin-2-yl)-3-(methylsulfinyl)-1H-indol-6-yl)(4-isopropylpiperazin-1-yl)methanone]"
–,70,"CC1CN(C(=O)c2ccc3c([S+](C)[O-])cn(-c4ncc(-c5ccccc5F)cn4)c3c2)CC(C)O1 (single isomer, unassigned) [Example 377, (2,6-Dimethylmorpholino)(1-(5-(2-fluorophenyl)pyrimidin-2-yl)-3-(methylsulfinyl)-1H-indol-6-yl)methanone]"
–,97,"CC(O)c1cn(-c2ncc(-c3ccccc3F)cn2)c2cc(C(=O)N3CCOCC3)ccc12 (single isomer, unassigned) [Example 252, (1-(5-(2-Fluorophenyl)pyrimidin-2-yl)-3-(1-hydroxyethyl)-1H-indol-6-yl)(morpholino)methanone]"
